Laboratory results: PubChem BioAssay AID2060624 (Molecular Pharmacology Branch, DTP, NCI, 2025)

System: 217524-143-R1-J4-PDC spheroids with HUVEC/MSC, viability
Test: Anticancer human tumor 217524-143-R1-J4-PDC patient-derived pancreatic carcinoma cell line growth inhibition [CLK]
Settings: for IC50: curve of first compound; for viability, T/C: stronger effect = lower value
Method in brief: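 Multi-cell-type spheroids combined patient-derived tumor cells with HUVEC endothelial cells and human mesenchymal stem cells. Paired agents were dosed in half-log steps down from about clinical Cmax, or from 10 microM where Cmax was unknown.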

[1] = second compound 0.0316 µM, first compound 0.0316 µM
[2] = second compound 0.0316 µM, first compound 0.1 µM
[3] = second compound 0.0316 µM, first compound 0.316 µM
[4] = second compound 0.0316 µM, first compound 1 µM
[5] = second compound 0.0316 µM, first compound 3.16 µM
[6] = second compound 0.0316 µM, first compound 10 µM
[7] = second compound 0.1 µM, first compound 0.0316 µM
[8] = second compound 0.1 µM, first compound 0.1 µM
[9] = second compound 0.1 µM, first compound 0.316 µM
[10] = second compound 0.1 µM, first compound 1 µM
[11] = second compound 0.1 µM, first compound 3.16 µM
[12] = second compound 0.1 µM, first compound 10 µM
[13] = second compound 0.316 µM, first compound 0.0316 µM
[14] = second compound 0.316 µM, first compound 0.1 µM
[15] = second compound 0.316 µM, first compound 0.316 µM
[16] = second compound 0.316 µM, first compound 1 µM
[17] = second compound 0.316 µM, first compound 3.16 µM
[18] = second compound 0.316 µM, first compound 10 µM
[19] = second compound 1 µM, first compound 0.0316 µM
[20] = second compound 1 µM, first compound 0.1 µM
[21] = second compound 1 µM, first compound 0.316 µM
[22] = second compound 1 µM, first compound 1 µM
[23] = second compound 1 µM, first compound 3.16 µM
[24] = second compound 1 µM, first compound 10 µM
[25] = second compound 3.16 µM, first compound 0.0316 µM
[26] = second compound 3.16 µM, first compound 0.1 µM
[27] = second compound 3.16 µM, first compound 0.316 µM
[28] = second compound 3.16 µM, first compound 1 µM
[29] = second compound 3.16 µM, first compound 3.16 µM
[30] = second compound 3.16 µM, first compound 10 µM
[31] = second compound 10 µM, first compound 0.0316 µM
[32] = second compound 10 µM, first compound 0.1 µM
[33] = second compound 10 µM, first compound 0.316 µM
[34] = second compound 10 µM, first compound 1 µM
[35] = second compound 10 µM, first compound 3.16 µM
[36] = second compound 10 µM, first compound 10 µM
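Note: spheroids exposed to agents for seven days before reading.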
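Throughout, for viability, T/C: 100% = DMSO vehicle control viability.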

Compound `COc1cccc2c1C(=O)c1c(O)c3c(c(O)c1C2=O)CC(O)(C(=O)CO)CC3OC1CC(N)C(O)C(C)O1` (centres undefined) + CNC(=O)c1ccc(Nc2nc(OC3CCCC3)c3c(-c4ccc5nc(C)oc5c4)c[nH]c3n2)c(OC)c1 has an IC50 (second compound 0.0316 µM) of under 31.6 nM, an IC50 (second compound 0.1 µM) of under 31.6 nM and an IC50 (second compound 0.316 µM) of under 31.6 nM. The IC50 (second compound 1 µM) was under 31.6 nM, the IC50 (second compound 3.16 µM) was under 31.6 nM and the IC50 (second compound 10 µM) was under 31.6 nM. It also gave a viability, T/C [1] of 32.9%, a viability, T/C [2] of 32.3% and a viability, T/C [3] of 25.3%. The viability, T/C [4] was 17.2%, the viability, T/C [5] was 3.45% and the viability, T/C [6] was 0.92%. The viability, T/C [7] was 38.2%, the viability, T/C [8] was 33.7% and the viability, T/C [9] was 23%. It also gave a viability, T/C [10] of 18.9%, a viability, T/C [11] of 2.48% and a viability, T/C [12] of 1.28%. The viability, T/C [13] was 32.2%, the viability, T/C [14] was 28.5% and the viability, T/C [15] was 16.5%. It also gave a viability, T/C [16] of 12.8%, a viability, T/C [17] of 2.83% and a viability, T/C [18] of 0.97%. The viability, T/C [19] was 25.2%, the viability, T/C [20] was 18.7% and the viability, T/C [21] was 11.8%. For the same compound, the viability, T/C [22] was 7.57%, the viability, T/C [23] was 1.43% and the viability, T/C [24] was 0.99%. It also gave a viability, T/C [25] of 18.7%, a viability, T/C [26] of 16% and a viability, T/C [27] of 13%. It also gave a viability, T/C [28] of 6.9%, a viability, T/C [29] of 0.62% and a viability, T/C [30] of 1.17%. It also gave a viability, T/C [31] of 22.2%, a viability, T/C [32] of 14.7% and a viability, T/C [33] of 10.7%. For the same compound, the viability, T/C [34] was 6.9%, the viability, T/C [35] was 0.98% and the viability, T/C [36] was 1.5%.

In the case of `O=c1[nH]cc(F)c(=O)[nH]1` + CNC(=O)c1ccc(Nc2nc(OC3CCCC3)c3c(-c4ccc5nc(C)oc5c4)c[nH]c3n2)c(OC)c1, the IC50 (second compound 0.0316 µM) is reported as 768 nM, the IC50 (second compound 0.1 µM) is reported as under 31.6 nM and the IC50 (second compound 0.316 µM) is reported as under 31.6 nM. It also gave an IC50 (second compound 1 µM) of under 31.6 nM, an IC50 (second compound 3.16 µM) of under 31.6 nM and an IC50 (second compound 10 µM) of under 31.6 nM. For the same compound, the viability, T/C [1] was 79.9%, the viability, T/C [2] was 86.3% and the viability, T/C [3] was 61.6%. For the same compound, the viability, T/C [4] was 48.3%, the viability, T/C [5] was 30.7% and the viability, T/C [6] was 29.1%. For the same compound, the viability, T/C [7] was 40.4%, the viability, T/C [8] was 37.5% and the viability, T/C [9] was 39.4%. For the same compound, the viability, T/C [10] was 35.6%, the viability, T/C [11] was 30% and the viability, T/C [12] was 26.7%. It also gave a viability, T/C [13] of 32.3%, a viability, T/C [14] of 36.7% and a viability, T/C [15] of 31.5%. For the same compound, the viability, T/C [16] was 29.9%, the viability, T/C [17] was 29.1% and the viability, T/C [18] was 21.5%. The viability, T/C [19] was 29.6%, the viability, T/C [20] was 26.7% and the viability, T/C [21] was 24.8%. The viability, T/C [22] was 21.9%, the viability, T/C [23] was 20.2% and the viability, T/C [24] was 13.9%. For the same compound, the viability, T/C [25] was 27%, the viability, T/C [26] was 30.4% and the viability, T/C [27] was 21.7%. For the same compound, the viability, T/C [28] was 23.4%, the viability, T/C [29] was 18.5% and the viability, T/C [30] was 13.4%. The viability, T/C [31] was 23.2%, the viability, T/C [32] was 27.4% and the viability, T/C [33] was 22.4%. For the same compound, the viability, T/C [34] was 22.6%, the viability, T/C [35] was 17.9% and the viability, T/C [36] was 13.1%.
